How the values were obtained:
[1] = Cytotoxicity against human HepG2.2.15 cells; type: cell-based, HepG2 2.2.15
[2] = Selectivity index, ratio of CC50 for human HepG2.2.15 cells to IC50 for HBV e antigen secretion; type: functional
Hepatitis B virus [3] = experiment: Antiviral activity against hepatitis B virus-infected human HepG2.2.15 cells assessed as inhibition of HBV surface antigen secretion; type: functional, organism-based; details: HepG2 2.2.15
Hepatitis B virus [4] = experiment: Antiviral activity against hepatitis B virus-infected human HepG2.2.15 cells assessed as inhibition of HBV e antigen secretion; type: functional, organism-based; details: HepG2 2.2.15
[5] = Selectivity index, ratio of CC50 for human HepG2.2.15 cells to IC50 for HBV surface antigen secretion; type: functional

SMILES | CC50 [1] | Ratio CC50/IC50 [2] | IC50 (Hepatitis B virus [3]) | IC50 (Hepatitis B virus [4]) | Ratio CC50/IC50 [5]
C=C(C)[C@H](OC(C)=O)[C@H](C[C@@H](C)C1=C2C[C@H](OC(C)=O)[C@H]3[C@@]4(C)CCC(=O)C(C)(C)[C@@H]4CC[C@]3(C)[C@@]2(C)CC1)OC(C)=O | 0.52 mM | 18 | 0.028 mM | 0.029 mM | 18
C=C(C)[C@H](OC(=O)c1ccccc1)[C@H](C[C@@H](C)[C@]12CC[C@@]3(C)[C@@]1(C[C@H](OC(=O)c1ccccc1)[C@H]1[C@@]4(C)CCC(=O)C(C)(C)[C@@H]4CC[C@@]13C)O2)OC(=O)c1ccccc1 | > 1.6 mM |  | > 1.6 mM | > 1.6 mM | 
C=C(C)[C@H](OC(=O)CC)[C@H](C[C@@H](C)[C@]12CC[C@@]3(C)[C@@]1(C[C@H](OC(=O)CC)[C@H]1[C@@]4(C)CCC(=O)C(C)(C)[C@@H]4CC[C@@]13C)O2)OC(=O)CC | > 2.5 mM |  | 0.16 mM | > 2.5 mM | >16
C[C@H](C[C@H](OC(=O)/C=C/c1ccccc1)[C@@H](OC(=O)/C=C/c1ccccc1)C(C)(C)O)[C@]12CC[C@@]3(C)[C@@]1(C[C@H](OC(=O)/C=C/c1ccccc1)[C@H]1[C@@]4(C)CCC(=O)C(C)(C)[C@@H]4CC[C@@]13C)O2 | > 1.3 mM | >1.3 | > 1.3 mM | 1 mM | 
C=C(C)[C@H](OC(=O)/C=C/c1ccccc1)[C@H](C[C@@H](C)C1=C2C[C@H](OC(=O)/C=C/c3ccccc3)[C@H]3[C@@]4(C)CCC(=O)C(C)(C)[C@@H]4CC[C@]3(C)[C@@]2(C)CC1)OC(=O)/C=C/c1ccccc1 | > 1.8 mM |  | > 1.8 mM | > 1.8 mM | 
CC(C)C(=O)O[C@@H](C[C@@H](C)C1=C2C[C@H](OC(=O)C(C)C)[C@H]3[C@@]4(C)CCC(=O)C(C)(C)[C@@H]4CC[C@]3(C)[C@@]2(C)CC1)[C@@H](OC(=O)C(C)C)C(C)(C)O | > 2.2 mM | >2.4 | 1.7 mM | 0.9 mM | >1.3
C[C@H](C[C@H](OC(=O)c1ccccc1)[C@@H](OC(=O)c1ccccc1)C(C)(C)O)[C@]12CC[C@@]3(C)[C@@]1(C[C@H](OC(=O)c1ccccc1)[C@H]1[C@@]4(C)CCC(=O)C(C)(C)[C@@H]4CC[C@@]13C)O2 | > 1.7 mM | >1.5 | > 1.7 mM | 1.1 mM | 
C=C(C)[C@H](OC(C)=O)[C@H](C[C@@H](C)[C@]12CC[C@@]3(C)[C@@]1(C[C@H](OC(C)=O)[C@H]1[C@@]4(C)CCC(=O)C(C)(C)[C@@H]4CC[C@@]13C)O2)OC(C)=O | > 2.6 mM | >93 | 0.024 mM | 0.028 mM | >108
C=C(C)[C@H](OC(=O)C(C)C)[C@H](C[C@@H](C)C1=C2C[C@H](OC(=O)C(C)C)[C@H]3[C@@]4(C)CCC(=O)C(C)(C)[C@@H]4CC[C@]3(C)[C@@]2(C)CC1)OC(=O)C(C)C | > 1.6 mM |  | > 1.6 mM | > 1.6 mM | 
C[C@H](C[C@H](O)[C@@H](O)C(C)(C)O)[C@]12CC[C@@]3(C)[C@@]1(C[C@H](O)[C@H]1[C@@]4(C)CCC(=O)C(C)(C)[C@@H]4CC[C@@]13C)O2 | 0.43 mM | 0.39 | 0.045 mM | 1.1 mM | 9.6
C=C(C)[C@H](OC(=O)C(C)C)[C@H](C[C@@H](C)[C@]12CC[C@@]3(C)[C@@]1(C[C@H](OC(=O)C(C)C)[C@H]1[C@@]4(C)CCC(=O)C(C)(C)[C@@H]4CC[C@@]13C)O2)OC(=O)C(C)C | > 1.3 mM |  | > 1.3 mM | > 1.3 mM | 
C=C(C)[C@H](OC(=O)/C=C/c1ccccc1)[C@H](C[C@@H](C)[C@]12CC[C@@]3(C)[C@@]1(C[C@H](OC(=O)/C=C/c1ccccc1)[C@H]1[C@@]4(C)CCC(=O)C(C)(C)[C@@H]4CC[C@@]13C)O2)OC(=O)/C=C/c1ccccc1 | > 1.6 mM |  | > 1.6 mM | > 1.6 mM | 
CC(C)C(=O)O[C@@H](C[C@@H](C)[C@]12CC[C@@]3(C)[C@@]1(C[C@H](OC(=O)C(C)C)[C@H]1[C@@]4(C)CCC(=O)C(C)(C)[C@@H]4CC[C@@]13C)O2)[C@@H](OC(=O)C(C)C)C(C)(C)O | > 1.9 mM |  | > 1.9 mM | > 1.9 mM | 
C[C@H](C[C@H](OC(=O)/C=C/c1ccccc1)[C@@H](OC(=O)/C=C/c1ccccc1)C(C)(C)O)C1=C2C[C@H](OC(=O)/C=C/c3ccccc3)[C@H]3[C@@]4(C)CCC(=O)C(C)(C)[C@@H]4CC[C@]3(C)[C@@]2(C)CC1 | > 1.4 mM |  | > 1.4 mM | > 1.4 mM | 
C[C@H](C[C@H](O)[C@@H](O)C(C)(C)O)C1=C2C[C@H](O)[C@H]3[C@@]4(C)CCCC(C)(C)[C@@H]4CC[C@]3(C)[C@@]2(C)CC1 | < 0.08 mM | <0.016 | 0.08 mM | 5.1 mM | <1
C[C@H](C[C@H](O)[C@@H](O)C(C)(C)O)C1=C2C[C@H](O)[C@H]3[C@@]4(C)CCC(=O)C(C)(C)[C@@H]4CC[C@]3(C)[C@@]2(C)CC1 [ALISOL A] | 0.062 mM | <0.03 | 0.039 mM | > 2.4 mM | 1.6
C=C(C)[C@H](OC(=O)c1ccccc1)[C@H](C[C@@H](C)C1=C2C[C@H](OC(=O)c3ccccc3)[C@H]3[C@@]4(C)CCC(=O)C(C)(C)[C@@H]4CC[C@]3(C)[C@@]2(C)CC1)OC(=O)c1ccccc1 | > 2.3 mM |  | > 2.3 mM | > 2.3 mM | 
CCC(=O)O[C@@H](C[C@@H](C)C1=C2C[C@H](OC(=O)CC)[C@H]3[C@@]4(C)CCC(=O)C(C)(C)[C@@H]4CC[C@]3(C)[C@@]2(C)CC1)[C@@H](OC(=O)CC)C(C)(C)O | > 1.4 mM |  | > 1.4 mM | > 1.4 mM | 
CC(=O)O[C@@H](C[C@@H](C)[C@]12CC[C@@]3(C)[C@@]1(C[C@H](OC(C)=O)[C@H]1[C@@]4(C)CCC(=O)C(C)(C)[C@@H]4CC[C@@]13C)O2)[C@@H](OC(C)=O)C(C)(C)O | > 2 mM |  | > 2 mM | > 2 mM | 
CCC(=O)O[C@@H](C[C@@H](C)[C@]12CC[C@@]3(C)[C@@]1(C[C@H](OC(=O)CC)[C@H]1[C@@]4(C)CCC(=O)C(C)(C)[C@@H]4CC[C@@]13C)O2)[C@@H](OC(=O)CC)C(C)(C)O | > 1.2 mM |  | > 1.2 mM | > 1.2 mM | 
C=C(C)[C@H](OC(=O)CC)[C@H](C[C@@H](C)C1=C2C[C@H](OC(=O)CC)[C@H]3[C@@]4(C)CCC(=O)C(C)(C)[C@@H]4CC[C@]3(C)[C@@]2(C)CC1)OC(=O)CC | > 1.2 mM |  | > 12 mM | > 12 mM | 
Cc1ccc(S(=O)(=O)N/N=C2\CC[C@@]3(C)[C@@H](CC[C@@]4(C)[C@H]3[C@@H](O)CC3=C([C@H](C)C[C@H](O)[C@@H](O)C(C)(C)O)CC[C@@]34C)C2(C)C)cc1 | < 0.029 mM | <1 | 0.029 mM | 0.029 mM | <1
C[C@H](C[C@H](OC(=O)c1ccccc1)[C@@H](OC(=O)c1ccccc1)C(C)(C)O)C1=C2C[C@H](OC(=O)c3ccccc3)[C@H]3[C@@]4(C)CCC(=O)C(C)(C)[C@@H]4CC[C@]3(C)[C@@]2(C)CC1 | > 1.5 mM |  | > 1.5 mM | > 1.5 mM | 
CC(=O)O[C@@H](C[C@@H](C)C1=C2C[C@H](OC(C)=O)[C@H]3[C@@]4(C)CCC(=O)C(C)(C)[C@@H]4CC[C@]3(C)[C@@]2(C)CC1)[C@@H](OC(C)=O)C(C)(C)O | > 2 mM |  | > 2 mM | > 2 mM | 
